Holding throughout (format): biochemical
Test [1] concerns Dipeptidylaminopeptidase. Briefly: Inhibition of dipeptidylaminopeptidase from monkey brain (substrate enkephalin).
For test [2], the system named is Aminopeptidase. Briefly: Inhibition of aminopeptidase from monkey brain (substrate enkephalin).
The target of test [3] is Aminopeptidase. Briefly: Inhibition of aminopeptidase from bovine longitudinal muscle (substrate enkephalin). The following applies: for IC50: aminopeptidase; for inhibition rate, Aminopeptidase: principal ingredient 1 μg/1 ml. The source says: (§1) (1) As described above, the inhibitor of the present invention has a strong effect of inhibiting the action of the opioid peptide-degrading enzyme. […] On the other hand, however, some opioid peptides released in vivo when such narcotic substances are given and opioid peptide-degrading enzymes have been known. Accordingly, the effects of the products of the present invention were judged from inhibition rates realized when the products were allowed to act on the opioid peptide-degrading enzyme in the presence of the opioid peptide in vitro.
(§2) In the tests, the product of the invention was added to an opioid peptide such as enkephalin or its model compound. After an incubation effected for a given time, the inhibition rates of the product against the opioid peptide-degrading enzyme were examined. Various opioid peptides were used.
(§3) The opioid peptide-degrading enzymes derived from bovine longitudinal muscle used in the above examples were purified partially by a process of Goreustein and Snyder S. H., ["Life Sci." 25, 2065 (1979)]. The inhibition effects of the compounds of the present invention on the opioid peptide-degrading enzymes were determined by a process of T. Hazato, M. Shimamura, T. Katayama and T. Yamamoto [B.B.R.C. 105, 470-475 (1982)] (for dipeptidylaminopeptidase), a process of M. Shimamura, T. Hazato and T. Katayama [B.B.A., 756, 223-229 (1983)] (for aminopeptidase) and analogous processes.

Test [4] deals with aminopeptidase. Kind of test: Inhibition of aminopeptidase of human cerebrospinal fluid (substrate enkephalin). The following applies: for IC50: aminopeptidase eluted from human cerebrospinal fluid, substrate enkephalin; for inhibition effect on aminopeptidase: dialyzed human cerebrospinal fluid, 2 mg/ml. The method, then:
(§4) A human cerebrospinal fluid was dialyzed by using 25 mM of tris-HCl buffer having a pH of 7.0 for 5 hrs. Enkephalin-degrading enzymes contained therein were analyzed according to a radioautography or the like. In the cerebrospinal fluid, the aminopeptidase activity was the strongest. Further, dipeptidylaminopeptidase and dipeptidylcarboxypeptidase activites which were non-selective for bestatin were also recognized.
(§5) The compound (3) and (6) of the present invention were allowed to act on the respective enzymes.
On the other hand, the aminopeptidase alone was eluted according to the cellulose column chromatography using a NaCl solution as a eluant. IC50 values of the above two compounds on the aminopeptidase were determined according to Porapak Q column process and high-performance liquid chromatography using enkephalin as the substrate. The results were compared with those of Arphamenin A and B the inhibitive actions of which on the enkephalin-degrading enzyme have been known.

The target of test [5] is T1, dipeptidylaminopeptidase (Homo sapiens, UniProt Q9NY33).
T1 construct: A human cerebrospinal fluid was dialyzed; from tissue; host or cells: human cerebrospinal fluid, dialyzed
T1 sequence (Q9NY33 2-737 limits assumed): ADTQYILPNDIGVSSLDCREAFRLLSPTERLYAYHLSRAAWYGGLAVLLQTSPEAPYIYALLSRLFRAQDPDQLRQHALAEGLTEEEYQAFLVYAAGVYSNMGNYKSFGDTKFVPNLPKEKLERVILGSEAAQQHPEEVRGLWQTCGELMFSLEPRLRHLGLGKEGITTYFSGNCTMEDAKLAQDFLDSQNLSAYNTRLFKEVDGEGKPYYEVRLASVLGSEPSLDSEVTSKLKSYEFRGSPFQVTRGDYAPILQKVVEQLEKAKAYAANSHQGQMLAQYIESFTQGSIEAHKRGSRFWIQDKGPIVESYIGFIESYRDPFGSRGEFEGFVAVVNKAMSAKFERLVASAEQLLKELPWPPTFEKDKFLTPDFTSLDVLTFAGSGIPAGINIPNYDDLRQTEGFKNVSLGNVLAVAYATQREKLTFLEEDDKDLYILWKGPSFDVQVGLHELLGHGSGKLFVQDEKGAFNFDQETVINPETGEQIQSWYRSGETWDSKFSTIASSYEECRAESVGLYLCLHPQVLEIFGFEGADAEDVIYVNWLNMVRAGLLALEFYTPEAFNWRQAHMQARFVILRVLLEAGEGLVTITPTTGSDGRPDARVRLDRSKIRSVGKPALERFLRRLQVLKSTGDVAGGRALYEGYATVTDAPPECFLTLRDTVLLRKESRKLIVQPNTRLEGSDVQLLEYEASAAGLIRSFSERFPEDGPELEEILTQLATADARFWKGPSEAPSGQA
Briefly: Inhibition of dipeptidylaminopeptidase of human cerebrospinal fluid. The conditions noted are these: dialyzed human cerebrospinal fluid; 2 mg/ml. The method, then:
as §4, §5

Test [6] deals with dipeptidylcarboxypeptidase (Homo sapiens, UniProt P12821). Kind of test: Inhibition of dipeptidylcarboxypeptidase of human cerebrospinal fluid. The following applies: dialyzed human cerebrospinal fluid; 2 mg/ml. The method, then: as §4, §5
Sequence of dipeptidylcarboxypeptidase (P12821 30-1232): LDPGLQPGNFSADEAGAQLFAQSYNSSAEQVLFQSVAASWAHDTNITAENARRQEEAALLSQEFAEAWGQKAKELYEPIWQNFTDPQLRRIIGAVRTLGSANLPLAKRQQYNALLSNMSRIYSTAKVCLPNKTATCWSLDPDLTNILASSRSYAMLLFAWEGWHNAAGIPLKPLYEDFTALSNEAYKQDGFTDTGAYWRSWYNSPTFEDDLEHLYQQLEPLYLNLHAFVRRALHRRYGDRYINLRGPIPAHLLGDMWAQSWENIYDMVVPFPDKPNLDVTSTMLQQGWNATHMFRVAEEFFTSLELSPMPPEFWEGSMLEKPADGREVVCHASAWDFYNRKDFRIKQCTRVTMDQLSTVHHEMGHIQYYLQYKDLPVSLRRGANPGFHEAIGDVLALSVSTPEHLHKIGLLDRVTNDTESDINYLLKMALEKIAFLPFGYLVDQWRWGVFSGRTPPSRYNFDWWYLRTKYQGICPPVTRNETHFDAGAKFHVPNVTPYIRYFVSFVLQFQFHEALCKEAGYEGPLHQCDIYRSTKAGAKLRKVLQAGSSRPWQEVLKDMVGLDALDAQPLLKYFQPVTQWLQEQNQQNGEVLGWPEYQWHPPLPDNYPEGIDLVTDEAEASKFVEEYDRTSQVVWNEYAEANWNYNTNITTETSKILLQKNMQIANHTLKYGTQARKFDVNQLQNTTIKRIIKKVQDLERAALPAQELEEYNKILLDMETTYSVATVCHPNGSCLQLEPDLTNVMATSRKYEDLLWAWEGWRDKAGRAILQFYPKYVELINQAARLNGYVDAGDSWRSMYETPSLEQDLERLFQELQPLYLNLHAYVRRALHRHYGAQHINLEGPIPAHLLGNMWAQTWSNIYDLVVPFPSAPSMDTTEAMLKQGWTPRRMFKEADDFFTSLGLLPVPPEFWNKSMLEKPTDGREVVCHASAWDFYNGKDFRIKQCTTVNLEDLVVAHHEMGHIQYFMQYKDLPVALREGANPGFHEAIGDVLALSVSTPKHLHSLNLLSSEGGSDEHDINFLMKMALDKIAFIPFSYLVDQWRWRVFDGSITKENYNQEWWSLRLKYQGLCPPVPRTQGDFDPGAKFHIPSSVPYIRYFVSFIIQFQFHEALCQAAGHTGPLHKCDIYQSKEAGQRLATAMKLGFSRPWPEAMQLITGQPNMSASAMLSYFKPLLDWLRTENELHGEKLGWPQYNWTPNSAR
Test [7] addresses T2, Dipeptidylcarboxypeptidase (Bos taurus, UniProt P12820).
T2 construct: derived from bovine longitudinal muscle; from tissue; host or cells: bovine longitudinal muscle, partially purified (Gorenstein and Snyder 1979)
T2 sequence (P12820 29-1306): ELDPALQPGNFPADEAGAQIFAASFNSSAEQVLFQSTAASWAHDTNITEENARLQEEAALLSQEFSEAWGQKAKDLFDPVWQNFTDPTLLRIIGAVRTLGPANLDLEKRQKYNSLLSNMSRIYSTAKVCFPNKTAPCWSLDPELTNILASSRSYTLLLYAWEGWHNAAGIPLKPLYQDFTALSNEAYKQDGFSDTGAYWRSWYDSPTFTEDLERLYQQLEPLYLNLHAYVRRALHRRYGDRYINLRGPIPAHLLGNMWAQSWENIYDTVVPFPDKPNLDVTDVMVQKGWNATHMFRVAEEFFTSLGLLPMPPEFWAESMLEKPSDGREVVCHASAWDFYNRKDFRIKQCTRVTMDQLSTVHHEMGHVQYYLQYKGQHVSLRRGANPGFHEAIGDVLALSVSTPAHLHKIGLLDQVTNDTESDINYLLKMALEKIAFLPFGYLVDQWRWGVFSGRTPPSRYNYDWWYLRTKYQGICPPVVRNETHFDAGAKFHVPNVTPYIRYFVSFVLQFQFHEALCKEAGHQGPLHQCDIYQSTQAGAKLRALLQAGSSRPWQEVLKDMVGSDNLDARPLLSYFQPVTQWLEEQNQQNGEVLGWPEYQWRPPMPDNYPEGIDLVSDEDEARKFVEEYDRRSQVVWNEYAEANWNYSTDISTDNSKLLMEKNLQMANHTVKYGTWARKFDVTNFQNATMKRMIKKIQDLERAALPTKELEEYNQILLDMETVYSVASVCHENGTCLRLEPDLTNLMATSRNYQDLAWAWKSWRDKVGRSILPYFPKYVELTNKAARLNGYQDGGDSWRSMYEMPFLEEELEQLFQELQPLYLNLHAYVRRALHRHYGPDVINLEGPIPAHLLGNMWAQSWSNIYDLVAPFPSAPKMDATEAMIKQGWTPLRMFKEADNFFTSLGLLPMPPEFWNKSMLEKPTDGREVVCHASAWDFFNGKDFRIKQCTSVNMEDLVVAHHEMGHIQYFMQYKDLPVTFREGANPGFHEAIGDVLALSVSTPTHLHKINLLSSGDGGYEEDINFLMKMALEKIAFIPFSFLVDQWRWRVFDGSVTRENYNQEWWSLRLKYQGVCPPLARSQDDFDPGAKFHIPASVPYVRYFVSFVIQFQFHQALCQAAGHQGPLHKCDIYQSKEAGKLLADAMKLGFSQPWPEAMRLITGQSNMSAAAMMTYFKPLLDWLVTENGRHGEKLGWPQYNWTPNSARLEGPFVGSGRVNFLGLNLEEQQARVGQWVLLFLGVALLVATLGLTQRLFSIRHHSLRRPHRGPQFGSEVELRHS
Kind of test: Inhibition of dipeptidylcarboxypeptidase from bovine longitudinal muscle (substrate Hip-His-Leu).
Text: as §1, §2
The opioid peptide-degrading enzymes derived from bovine longitudinal muscle used in the above examples were purified partially by a process of Goreustein and Snyder S. H., ["Life Sci." 25, 2065 (1979)]. The inhibition effects of the compounds of the present invention on the opioid peptide-degrading enzymes were determined by a process of T. Hazato, M. Shimamura, T. Katayama and T. Yamamoto [B.B.R.C. 105, 470-475 (1982)] (for dipeptidylaminopeptidase), a process of M. Shimamura, T. Hazato and T. Katayama [B.B.A., 756, 223-229 (1983)] […]

In test [8] the test system is Carboxypeptidase. Briefly: Inhibition of carboxypeptidase from bovine longitudinal muscle (substrate Hip-L-PheAla). The following applies: for inhibition rate, Carboxypeptidase: principal ingredient 1 μg/1 ml.
Text: as §1, §2, §3

For test [9], the target named is T3, angiotensin converting enzyme (Rattus norvegicus, UniProt P47820).
T3 construct: lung; from tissue; host or cells: rat lung
T3 sequence (P47820 36-1313): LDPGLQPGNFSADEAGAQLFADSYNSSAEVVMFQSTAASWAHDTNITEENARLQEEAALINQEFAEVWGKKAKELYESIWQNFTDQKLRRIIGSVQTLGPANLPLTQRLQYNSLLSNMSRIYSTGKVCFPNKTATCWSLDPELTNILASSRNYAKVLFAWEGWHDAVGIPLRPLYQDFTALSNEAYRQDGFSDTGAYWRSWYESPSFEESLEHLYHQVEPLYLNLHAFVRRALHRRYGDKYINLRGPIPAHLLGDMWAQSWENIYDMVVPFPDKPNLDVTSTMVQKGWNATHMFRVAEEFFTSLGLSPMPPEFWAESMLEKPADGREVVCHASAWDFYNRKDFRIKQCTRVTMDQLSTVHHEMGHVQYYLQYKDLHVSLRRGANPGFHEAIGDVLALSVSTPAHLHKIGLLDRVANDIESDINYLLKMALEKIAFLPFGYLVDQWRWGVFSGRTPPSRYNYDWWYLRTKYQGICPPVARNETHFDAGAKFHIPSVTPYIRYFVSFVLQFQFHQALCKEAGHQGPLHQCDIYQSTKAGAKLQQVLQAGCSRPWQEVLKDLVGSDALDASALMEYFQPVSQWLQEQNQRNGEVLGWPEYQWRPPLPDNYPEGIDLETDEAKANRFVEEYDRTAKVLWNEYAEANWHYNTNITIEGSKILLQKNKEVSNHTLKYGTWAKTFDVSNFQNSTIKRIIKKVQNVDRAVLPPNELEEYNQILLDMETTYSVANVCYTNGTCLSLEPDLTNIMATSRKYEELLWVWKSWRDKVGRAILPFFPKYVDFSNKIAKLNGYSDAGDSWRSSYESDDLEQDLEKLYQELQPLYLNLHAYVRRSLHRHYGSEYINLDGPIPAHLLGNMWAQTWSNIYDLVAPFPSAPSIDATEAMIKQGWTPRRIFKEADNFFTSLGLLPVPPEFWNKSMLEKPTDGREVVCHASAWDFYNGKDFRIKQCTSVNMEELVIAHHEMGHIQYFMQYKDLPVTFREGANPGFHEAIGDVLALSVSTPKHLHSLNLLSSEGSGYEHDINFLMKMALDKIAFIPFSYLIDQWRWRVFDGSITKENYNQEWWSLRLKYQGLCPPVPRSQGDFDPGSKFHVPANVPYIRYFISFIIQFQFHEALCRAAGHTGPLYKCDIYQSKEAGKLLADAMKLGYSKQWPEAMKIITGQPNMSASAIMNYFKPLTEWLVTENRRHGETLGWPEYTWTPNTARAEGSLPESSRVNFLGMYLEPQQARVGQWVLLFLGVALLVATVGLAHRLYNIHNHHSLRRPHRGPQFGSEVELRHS
Briefly: Inhibition of angiotensin converting enzyme from rat lung. The conditions noted are these: substrate Hip--His--L-Lue.

Test [10] concerns the target Angiotensin converting enzyme. Briefly: Inhibition of angiotensin converting enzyme from monkey brain. The conditions noted are these: substrate Hip--His--L-Lue.
For test [11], the system named is carboxypeptidase. Briefly: Inhibition of carboxypeptidase of human cerebrospinal fluid. The following applies: dialyzed human cerebrospinal fluid; 2 mg/ml. On the procedure: as §4, §5

This note sets out measurements from patent US4748187A, “Opioid peptide-degrading enzyme inhibitor with a germanium compound” (Asai Germanium Research Institute, priority 1983, dated 1988).

Structures are written as SMILES.

`O=C(O)C[CH2][Ge](=[S])[S][Ge](=[S])[CH2]CC(=O)O` [Compound (1)]: in the test with Dipeptidylaminopeptidase [1], the “inhibition rate, Dipeptidylaminopeptidase” value turned out to be 98.2%. The “inhibition rate, Aminopeptidase” value with Aminopeptidase [2] is listed as 87.8%.

As to `C[C](C)(CC(=O)O)[Ge](=[S])[S][Ge](=[S])[C](C)(C)CC(=O)O` [Compound (5)], at Aminopeptidase [3], the IC50 is 110 µg/mL and the “inhibition rate, Aminopeptidase” value is 88.0%.

For `CC([CH2][Ge](=[S])[S][Ge](=[S])[CH2]C(C)C(=O)O)C(=O)O` (stereo not drawn) [Compound (3)], in the test on Dipeptidylaminopeptidase [1], the “inhibition rate, Dipeptidylaminopeptidase” value worked out at 97.7%. The “inhibition rate, Aminopeptidase” value in the test on Aminopeptidase [2] is 85.6%. Further, on aminopeptidase [4], the IC50 came out at 450 μg/m and the “inhibition effect on aminopeptidase” value is on record as “exhibited inhibition effects”. Moreover, at dipeptidylaminopeptidase [5], the “inhibition effect on dipeptidylaminopeptidase” value is reported as “exhibited inhibition effects”. Besides, the “inhibition effect on dipeptidylcarboxypeptidase” value in [6] is on record as “exhibited inhibition effects”.

For the compound `N=C(N)NCCCC(N)C(=O)CC(Cc1ccccc1)C(=O)O` (stereo not drawn) [Arphamenine A, reference compound], at aminopeptidase [4], the IC50 was 810 μg/m.

Consider `C[CH](CC(=O)O)[Ge](=[S])[S][Ge](=[S])[CH](C)CC(=O)O` (stereo not drawn) [Compound (2)], for which the IC50 in test [7] is 159 µM; in test [9], 168 µM; in test [10], 78 µg/mL. In the test with Carboxypeptidase [8], the “inhibition rate, Carboxypeptidase” value is recorded as 6.2%. In addition, in the test on Dipeptidylaminopeptidase [1], the “inhibition rate, Dipeptidylaminopeptidase” value came to 97.9%. Moreover, the “inhibition rate, Aminopeptidase” value in the test with Aminopeptidase [2] is 87.6%.

In the case of `O=C(O)C[CH](c1ccccc1)[Ge](=[S])[S][Ge](=[S])[CH](CC(=O)O)c1ccccc1` (stereo not drawn) [Compound (6)], the IC50 in [7] was 185 µM; at Carboxypeptidase [8] (carboxypeptidase), 275 µg/mL; at Aminopeptidase [3], 19 µg/mL; at aminopeptidase [4], 440 μg/m. Also, the “inhibition rate, Carboxypeptidase” value with Carboxypeptidase [8] is given as 89.8%. In the test with Aminopeptidase [3], the “inhibition rate, Aminopeptidase” value is 97.0%. For the same compound, in the test on aminopeptidase [4], the “inhibition effect on aminopeptidase” value is “exhibited inhibition effects”. In test [6], the “inhibition effect on dipeptidylcarboxypeptidase” value is on record as “exhibited inhibition effects”. Besides, the “inhibition effect on carboxypeptidase” value in the test with carboxypeptidase [11] is on record as “exhibited inhibition effects”.

In turn, `N=C(N)NCCCC(N)C(=O)CC(Cc1ccc(O)cc1)C(=O)O` (stereo not drawn) [Arphamenine B, reference compound] yielded an IC50 on aminopeptidase [4] of 650 μg/m.
